Measured values: PMC5218480 (PLoS ONE, 2017)

Tested on: MV-4-11 cells
Assay: Gene expression microarray analysis (Affymetrix PrimeView) and GSEA
Format: cell-based, human
Parameters: RFU PODN (11730768_x_at) / Fold change /veh PODN (11730768_x_at) / RFU LINC00158 (11744669_a_at) / Fold change /veh LINC00158 (11744669_a_at) / RFU DUSP10 (11751237_a_at) / Fold change /veh DUSP10 (11751237_a_at) / RFU ID3 (11757404_x_at) / Fold change /veh ID3 (11757404_x_at) / RFU PLEKHG5 (11737974_s_at) / Fold change /veh PLEKHG5 (11737974_s_at) / RFU LRRC4B (11730491_at) / Fold change /veh LRRC4B (11730491_at) / RFU GIMAP4 (11747438_a_at) / Fold change /veh GIMAP4 (11747438_a_at) / RFU KRT8 (11758183_x_at) / Fold change /veh KRT8 (11758183_x_at) / RFU CNN1 (11734310_a_at) / Fold change /veh CNN1 (11734310_a_at) / RFU VPS37D (11726825_at) / Fold change /veh VPS37D (11726825_at) / RFU C10orf10 (11716522_x_at) / Fold change /veh C10orf10 (11716522_x_at) / RFU KIR2DL2 /// KIR2DL4 /// KIR2DL5A /// KIR2DL5B /// KIR2DS1 /// KIR2DS2 /// KIR2DS3 /// KIR2DS4 /// KIR3DL3 /// KIR3DL3 /// KIR3DS1 (11738374_at) / Fold change /veh KIR2DL2 /// KIR2DL4 /// KIR2DL5A /// KIR2DL5B /// KIR2DS1 /// KIR2DS2 /// KIR2DS3 /// KIR2DS4 /// KIR3DL3 /// KIR3DL3 /// KIR3DS1 (11738374_at) / RFU C1QL1 (11718748_at) / Fold change /veh C1QL1 (11718748_at) / RFU TMPRSS4 (11747572_a_at) / Fold change /veh TMPRSS4 (11747572_a_at) / RFU HAMP (11756126_x_at) / Fold change /veh HAMP (11756126_x_at) / RFU RNFT2 (11725882_a_at) / Fold change /veh RNFT2 (11725882_a_at) / RFU NR4A2 (11747474_a_at) / Fold change /veh NR4A2 (11747474_a_at) / RFU ABCC12 (11746883_a_at) / Fold change /veh ABCC12 (11746883_a_at) / RFU TMEM136 (11760407_x_at) / Fold change /veh TMEM136 (11760407_x_at) / RFU CLDN22 /// WWC2 (11732394_at) / Fold change /veh CLDN22 /// WWC2 (11732394_at) / RFU HLA-DPB1 (11760878_x_at) / Fold change /veh HLA-DPB1 (11760878_x_at) / RFU SPINT1 (11716480_a_at) / Fold change /veh SPINT1 (11716480_a_at) / RFU GAP43 (11754022_s_at) / Fold change /veh GAP43 (11754022_s_at) / RFU A4GNT (11735810_at) / Fold change /veh A4GNT (11735810_at) / RFU PRB3 (11715151_x_at) / Fold change /veh PRB3 (11715151_x_at) / RFU TUBB4B (11761932_at) / Fold change /veh TUBB4B (11761932_at) / RFU CAPN14 (11732068_a_at) / Fold change /veh CAPN14 (11732068_a_at) / RFU TMCC2 (11721928_a_at) / Fold change /veh TMCC2 (11721928_a_at) / RFU IRGQ (11745062_a_at) / Fold change /veh IRGQ (11745062_a_at) / RFU FAM174B (11720279_a_at) / Fold change /veh FAM174B (11720279_a_at) / RFU TMPRSS4 (11748680_a_at) / Fold change /veh TMPRSS4 (11748680_a_at) / RFU FAM212B (11763350_a_at) / Fold change /veh FAM212B (11763350_a_at) / RFU PLEKHG5 (11743358_a_at) / Fold change /veh PLEKHG5 (11743358_a_at) / RFU ZSCAN30 (11745921_a_at) / Fold change /veh ZSCAN30 (11745921_a_at) / RFU CMKLR1 (11741424_a_at) / Fold change /veh CMKLR1 (11741424_a_at) / RFU LOC101060620 /// MAPK8IP1 (11723275_at) / Fold change /veh LOC101060620 /// MAPK8IP1 (11723275_at) / RFU SPTSSB (11747773_x_at) / Fold change /veh SPTSSB (11747773_x_at) / RFU PRSS12 (11739890_at) / Fold change /veh PRSS12 (11739890_at) / RFU BIN1 (11741810_x_at) / Fold change /veh BIN1 (11741810_x_at) / RFU WNT11 (11732464_a_at) / Fold change /veh WNT11 (11732464_a_at) / RFU C10orf10 (11716521_a_at) / Fold change /veh C10orf10 (11716521_a_at) / RFU C5orf56 (11738089_at) / Fold change /veh C5orf56 (11738089_at) / RFU CYB561 (11721691_x_at) / Fold change /veh CYB561 (11721691_x_at) / RFU ANKRD19P (11752326_a_at) / Fold change /veh ANKRD19P (11752326_a_at) / RFU OR2T12 /// OR2T33 /// OR2T8 (11738714_s_at) / Fold change /veh OR2T12 /// OR2T33 /// OR2T8 (11738714_s_at) / RFU VCAN (11748164_a_at) / Fold change /veh VCAN (11748164_a_at) / RFU JSRP1 (11732532_at) / Fold change /veh JSRP1 (11732532_at) / RFU KRTAP10-11 (11738290_x_at) / Fold change /veh KRTAP10-11 (11738290_x_at) / RFU MYO3A (11730013_a_at) / Fold change /veh MYO3A (11730013_a_at) / RFU EBF3 (11725865_a_at) / Fold change /veh EBF3 (11725865_a_at) / RFU CAMK2N1 (11719241_x_at) / Fold change /veh CAMK2N1 (11719241_x_at) / RFU C5orf56 (11738088_a_at) / Fold change /veh C5orf56 (11738088_a_at) / RFU OLFML3 (11715873_a_at) / Fold change /veh OLFML3 (11715873_a_at) / RFU LOC100653217 /// NTM (11731650_a_at) / Fold change /veh LOC100653217 /// NTM (11731650_a_at) / RFU MAPK11 (11762145_a_at) / Fold change /veh MAPK11 (11762145_a_at) / RFU FIZ1 (11724087_x_at) / Fold change /veh FIZ1 (11724087_x_at) / RFU OASL (11726364_x_at) / Fold change /veh OASL (11726364_x_at) / RFU SOX15 (11748057_x_at) / Fold change /veh SOX15 (11748057_x_at) / RFU CD79A (11719716_a_at) / Fold change /veh CD79A (11719716_a_at) / RFU HIST1H1D (11736915_at) / Fold change /veh HIST1H1D (11736915_at) / RFU CASKIN2 (11723855_a_at) / Fold change /veh CASKIN2 (11723855_a_at) / RFU LOC730098 (11760151_x_at) / Fold change /veh LOC730098 (11760151_x_at) / RFU OR4N2 (11742367_at) / Fold change /veh OR4N2 (11742367_at) / RFU PRRT2 (11749266_a_at) / Fold change /veh PRRT2 (11749266_a_at) / RFU SNX32 (11753110_a_at) / Fold change /veh SNX32 (11753110_a_at) / RFU CDHR5 (11726645_a_at) / Fold change /veh CDHR5 (11726645_a_at) / RFU RCAN1 (11760418_a_at) / Fold change /veh RCAN1 (11760418_a_at) / RFU FAM167A (11723789_a_at) / Fold change /veh FAM167A (11723789_a_at) / RFU FAM26E (11764081_at) / Fold change /veh FAM26E (11764081_at) / RFU ISYNA1 (11749810_s_at) / Fold change /veh ISYNA1 (11749810_s_at) / RFU ACY1 (11761880_at) / Fold change /veh ACY1 (11761880_at) / RFU 11764098_at / Fold change /veh 11764098_at / RFU SAMD14 (11745864_x_at) / Fold change /veh SAMD14 (11745864_x_at) / RFU NPB (11741838_a_at) / Fold change /veh NPB (11741838_a_at) / RFU TMPRSS6 (11731388_a_at) / Fold change /veh TMPRSS6 (11731388_a_at) / RFU KRTAP10-2 (11738614_at) / Fold change /veh KRTAP10-2 (11738614_at) / RFU ARHGAP8 /// PRR5-ARHGAP8 (11727945_x_at) / Fold change /veh ARHGAP8 /// PRR5-ARHGAP8 (11727945_x_at) / RFU KRTAP5-7 /// NADSYN1 (11734609_at) / Fold change /veh KRTAP5-7 /// NADSYN1 (11734609_at) / RFU RASL12 (11751679_a_at) / Fold change /veh RASL12 (11751679_a_at) / RFU CDKN2B (11736163_a_at) / Fold change /veh CDKN2B (11736163_a_at) / RFU PRF1 (11729649_at) / Fold change /veh PRF1 (11729649_at) / RFU, ZNF638 /// ZNF638-IT1 / Fold change vs veh, ZNF638 /// ZNF638-IT1 / RFU, PANK3 / Fold change vs veh, PANK3 / RFU, SH3YL1 / Fold change vs veh, SH3YL1 / RFU, ZEB2 / Fold change vs veh, ZEB2 / RFU, NRIP1 / Fold change vs veh, NRIP1 / RFU, PTTG1IP / Fold change vs veh, PTTG1IP / RFU, CAPN2 / Fold change vs veh, CAPN2 / RFU, MED14 / Fold change vs veh, MED14 / RFU, SNORA58 / Fold change vs veh, SNORA58 / RFU, C1orf63 / Fold change vs veh, C1orf63 / RFU, LRRFIP1 / Fold change vs veh, LRRFIP1 / RFU, NDUFAF7 / Fold change vs veh, NDUFAF7 / RFU, SLC12A2 / Fold change vs veh, SLC12A2 / RFU, IBTK / Fold change vs veh, IBTK / RFU, ESF1 / Fold change vs veh, ESF1 / Fold change vs veh, TMEM50B / RFU, TAOK1 / Fold change vs veh, TAOK1 / RFU, ACBD3 / Fold change vs veh, ACBD3 / RFU, TMA16 / Fold change vs veh, TMA16 / RFU, RWDD3 / Fold change vs veh, RWDD3 / RFU, BCAT1 / Fold change vs veh, BCAT1 / RFU, EDEM3 / Fold change vs veh, EDEM3 / RFU, TMEM33 / Fold change vs veh, TMEM33 / RFU, WDR75 / Fold change vs veh, WDR75 / RFU, AHCTF1 / Fold change vs veh, AHCTF1 / RFU, TFRC / Fold change vs veh, TFRC / RFU, ZDHHC17 / Fold change vs veh, ZDHHC17 / RFU, NOM1 / Fold change vs veh, NOM1 / RFU, ARL8B / Fold change vs veh, ARL8B / RFU, ZBTB11 / Fold change vs veh, ZBTB11 / RFU, TAMM41 / Fold change vs veh, TAMM41 / RFU, KIAA1704 /// LOC100996395 / Fold change vs veh, KIAA1704 /// LOC100996395 / RFU, ING1 / Fold change vs veh, ING1 / RFU, TRMT61B / Fold change vs veh, TRMT61B / RFU, FUBP3 / Fold change vs veh, FUBP3 / RFU, TP53 / Fold change vs veh, TP53 / RFU, TNKS2 / Fold change vs veh, TNKS2 / RFU, ZFP14 / Fold change vs veh, ZFP14 / RFU, ACTR2 / Fold change vs veh, ACTR2 / RFU, PPP3R1 / Fold change vs veh, PPP3R1 / RFU, PIK3R1 / Fold change vs veh, PIK3R1 / RFU, HNRNPA1 / Fold change vs veh, HNRNPA1 / RFU, RNF170 / Fold change vs veh, RNF170 / RFU, ZNF28 / Fold change vs veh, ZNF28 / RFU, RNGTT / Fold change vs veh, RNGTT / RFU, OGT / Fold change vs veh, OGT / RFU, BRD1 / Fold change vs veh, BRD1 / RFU, MARS / Fold change vs veh, MARS / RFU, ZNF655 / Fold change vs veh, ZNF655 / RFU, FAHD1 / Fold change vs veh, FAHD1 / RFU, BDP1 / Fold change vs veh, BDP1 / RFU, LRRCC1 / Fold change vs veh, LRRCC1 / RFU, ARID1A / Fold change vs veh, ARID1A / RFU, ZNF146 / Fold change vs veh, ZNF146 / RFU, ZNF330 / Fold change vs veh, ZNF330 / RFU, GPN3 / Fold change vs veh, GPN3 / RFU, C9orf123 / Fold change vs veh, C9orf123 / RFU, N4BP2L2 / Fold change vs veh, N4BP2L2 / RFU, ARFIP1 / Fold change vs veh, ARFIP1 / RFU, FAM179B / Fold change vs veh, FAM179B / RFU, BCL10 / Fold change vs veh, BCL10 / RFU, UHRF1BP1L / Fold change vs veh, UHRF1BP1L / RFU, BET1 / Fold change vs veh, BET1 / RFU, CNOT2 / Fold change vs veh, CNOT2 / RFU, ZNF268 / Fold change vs veh, ZNF268 / Fold change vs veh, ZNF507 / RFU, DGCR2 / Fold change vs veh, DGCR2 / RFU, WDSUB1 / Fold change vs veh, WDSUB1 / Fold change vs veh, HSP90B1 /// MIR3652 / RFU, ADSS / Fold change vs veh, ADSS / RFU, GK / Fold change vs veh, GK / RFU, ZNF148 / Fold change vs veh, ZNF148 / RFU, TAF9 / Fold change vs veh, TAF9 / RFU, SLC1A5 / Fold change vs veh, SLC1A5 / RFU, SLMO2 / Fold change vs veh, SLMO2 / RFU, ABCC4 / Fold change vs veh, ABCC4 / RFU, LOC101060439 /// RAP1B / Fold change vs veh, LOC101060439 /// RAP1B / RFU, RFX7 / Fold change vs veh, RFX7 / RFU, GTPBP10 / Fold change vs veh, GTPBP10 / RFU, CNEP1R1 / Fold change vs veh, CNEP1R1 / RFU, BIVM-ERCC5 /// ERCC5 / Fold change vs veh, BIVM-ERCC5 /// ERCC5 / RFU, ILF3 / Fold change vs veh, ILF3 / RFU 11762660_at / Fold change /veh 11762660_at / RFU VCAN (11757783_s_at) / Fold change /veh VCAN (11757783_s_at) / RFU DDX43 (11728927_at) / Fold change /veh DDX43 (11728927_at) / RFU KRT8 (11758188_x_at) / Fold change /veh KRT8 (11758188_x_at) / RFU NKD1 (11759106_at) / Fold change /veh NKD1 (11759106_at) / RFU SRD5A1 (11742802_a_at) / Fold change /veh SRD5A1 (11742802_a_at) / RFU TPSAB1 /// TPSB2 (11721975_s_at) / Fold change /veh TPSAB1 /// TPSB2 (11721975_s_at) / RFU GSTM3 (11746129_a_at) / Fold change /veh GSTM3 (11746129_a_at) / RFU IL23R (11737362_x_at) / Fold change /veh IL23R (11737362_x_at) / RFU TMEM51 (11727254_a_at) / Fold change /veh TMEM51 (11727254_a_at) / RFU PIWIL2 (11732686_x_at) / Fold change /veh PIWIL2 (11732686_x_at) / RFU ORM1 (11744905_x_at) / Fold change /veh ORM1 (11744905_x_at) / RFU CCDC152 (11743942_at) / Fold change /veh CCDC152 (11743942_at) / RFU ECM1 (11717891_a_at) / Fold change /veh ECM1 (11717891_a_at) / RFU IL23R (11748794_a_at) / Fold change /veh IL23R (11748794_a_at) / RFU TNFAIP8L3 (11732012_x_at) / Fold change /veh TNFAIP8L3 (11732012_x_at) / RFU MBOAT4 (11741988_at) / Fold change /veh MBOAT4 (11741988_at) / RFU 11764193_at / Fold change /veh 11764193_at / RFU TMEM53 (11763286_at) / Fold change /veh TMEM53 (11763286_at) / RFU MAGEB2 (11727129_at) / Fold change /veh MAGEB2 (11727129_at) / RFU TMEM200A (11744735_a_at) / Fold change /veh TMEM200A (11744735_a_at) / RFU CCDC152 (11751479_a_at) / Fold change /veh CCDC152 (11751479_a_at) / RFU FAM211A (11726209_a_at) / Fold change /veh FAM211A (11726209_a_at) / RFU RGS16 (11746705_a_at) / Fold change /veh RGS16 (11746705_a_at) / RFU VCAN (11755009_s_at) / Fold change /veh VCAN (11755009_s_at) / RFU RHOB (11743442_s_at) / Fold change /veh RHOB (11743442_s_at) / RFU RGS16 (11720943_a_at) / Fold change /veh RGS16 (11720943_a_at) / RFU RGS16 (11720944_at) / Fold change /veh RGS16 (11720944_at) / RFU, VPS4B / Fold change vs veh, VPS4B / RFU, CREB1 / Fold change vs veh, CREB1 / RFU, DNAJC13 / Fold change vs veh, DNAJC13 / RFU, GNAQ / Fold change vs veh, GNAQ / RFU, CDK5R1 / Fold change vs veh, CDK5R1 / RFU, ZRANB3 / Fold change vs veh, ZRANB3 / RFU, CUL4A / Fold change vs veh, CUL4A / RFU, CCNY / Fold change vs veh, CCNY / RFU, UFL1 / Fold change vs veh, UFL1 / RFU, COG3 / Fold change vs veh, COG3 / RFU, DIAPH2 / Fold change vs veh, DIAPH2 / RFU, SKA2 / Fold change vs veh, SKA2 / RFU, AFF3 / Fold change vs veh, AFF3 / RFU, LMF1 / Fold change vs veh, LMF1 / RFU, IPO11 / Fold change vs veh, IPO11 / RFU, DFFB / Fold change vs veh, DFFB / RFU, FOXP1 / Fold change vs veh, FOXP1 / RFU, CARD8 / Fold change vs veh, CARD8 / RFU, STRN3 / Fold change vs veh, STRN3 / RFU, ADK / Fold change vs veh, ADK / RFU, RASSF2 / Fold change vs veh, RASSF2 / RFU, WIPF1 / Fold change vs veh, WIPF1 / RFU, LARP1B / Fold change vs veh, LARP1B / RFU, RASA1 / Fold change vs veh, RASA1 / RFU, RB1 / Fold change vs veh, RB1 / RFU, PPFIA1 / Fold change vs veh, PPFIA1 / RFU, MAT2A / Fold change vs veh, MAT2A / RFU, CCT5 / Fold change vs veh, CCT5 / RFU, WDR92 / Fold change vs veh, WDR92 / RFU, CUX1 / Fold change vs veh, CUX1 / RFU, TTC7A / Fold change vs veh, TTC7A / RFU, TMEM135 / Fold change vs veh, TMEM135 / RFU, DEPTOR / Fold change vs veh, DEPTOR / RFU, CPM / Fold change vs veh, CPM / RFU, DNAJB6 / Fold change vs veh, DNAJB6 / RFU, CACNA2D3 / Fold change vs veh, CACNA2D3 / RFU, DTX4 / Fold change vs veh, DTX4 / RFU, TFCP2 / Fold change vs veh, TFCP2 / RFU, GMCL1 /// GMCL1P1 / Fold change vs veh, GMCL1 /// GMCL1P1 / RFU, AEBP2 / Fold change vs veh, AEBP2 / RFU, SNHG1 /// SNORD22 /// SNORD25 /// SNORD26 /// SNORD27 /// SNORD28 /// SNORD29 /// SNORD31 / Fold change vs veh, SNHG1 /// SNORD22 /// SNORD25 /// SNORD26 /// SNORD27 /// SNORD28 /// SNORD29 /// SNORD31 / Fold change (Aza/veh), C12orf56 (ProbeSet 11735607_a_at) / Fold change (ACY-1035/veh), C12orf56 (ProbeSet 11735607_a_at) / Fold change (Aza/veh), FGFR1OP (ProbeSet 11751329_s_at) / Fold change (ACY-1035/veh), FGFR1OP (ProbeSet 11751329_s_at) / Fold change (Aza/veh), VPS36 (ProbeSet 11739960_a_at) / Fold change (ACY-1035/veh), VPS36 (ProbeSet 11739960_a_at) / RFU SYPL1 (11715823_x_at) / Fold change /veh SYPL1 (11715823_x_at) / RFU IGFBP7 (11715501_s_at) / Fold change /veh IGFBP7 (11715501_s_at) / RFU REEP3 (11722064_at) / Fold change /veh REEP3 (11722064_at) / RFU IGLL1 (11728026_x_at) / Fold change /veh IGLL1 (11728026_x_at): dose or concentration left out as unconfirmed
Conditions: MV-4-11 cells, 48 hours

For `Nc1ccc(-c2cccs2)cc1NC(=O)c1ccc2c(c1)cc(C1CC1)n2CCN1CCOCC1` [ACY-1035], the “Fold change /veh PRRT2 (11749266_a_at)” value was 1.00.
